According to ChEMBL document CHEMBL5728032, “Fluorine-containing triazolopyridine, and manufacturing method, pharmaceutical composition, and application thereof” (2020):

Each compound was assayed against Metabotropic glutamate receptor 2 (Homo sapiens, UniProt Q14416) (assay: In Vitro Activity Test for mGluR2: Experimental materials: HEK/mGluR2 cell line ([…] transfected HEK cell line), DMEM (FBS) medium, positive control LY487379 (purchased from sigma; CAS: to 352317-17-1)Experimental instrument: FLIPR Tetra real-time fluorescence imaging analysis systemExperimental method: HDB Fluo-8 calcium fluorescence detection methodExperimental principle: HDB Fluo-8 calcium ion fluorescence detection method is a fast, simple and reliable fluorescence detection method of intracellular calcium concentration changes. The Fluo 8-AM fluorescent dye is an acetyl methyl ester derivative of Fluo 8 which can easily penetrate into the cell membrane by culture. The fluorescent dye in the cell will be hydrolyzed by intracellular esterase, the resulting Fluo 8 as a polar molecule, cannot easily pass through the lipid bimolecular membrane, and will be retained in the cell, and combine with calcium (Ca2+) to produce fluoresces.Cells expressing GPCR receptor protein (mGluR2) were first calibrated with a calcium ion sensitive fluorescent probe and then stimulated with the compound. After stimulation, the receptor activates the calcium ion mobilization, and the fluorescent probe captures the calcium ion to induce the fluorescence signal. The signal can be read by a fluoroscopy plate. The fluorescent plate reader contains a sample addition for compound addition, thus enabling the change of the fluorescence value of the compound be read in real time.).
Sequence of Metabotropic glutamate receptor 2 (Q14416 whole entry): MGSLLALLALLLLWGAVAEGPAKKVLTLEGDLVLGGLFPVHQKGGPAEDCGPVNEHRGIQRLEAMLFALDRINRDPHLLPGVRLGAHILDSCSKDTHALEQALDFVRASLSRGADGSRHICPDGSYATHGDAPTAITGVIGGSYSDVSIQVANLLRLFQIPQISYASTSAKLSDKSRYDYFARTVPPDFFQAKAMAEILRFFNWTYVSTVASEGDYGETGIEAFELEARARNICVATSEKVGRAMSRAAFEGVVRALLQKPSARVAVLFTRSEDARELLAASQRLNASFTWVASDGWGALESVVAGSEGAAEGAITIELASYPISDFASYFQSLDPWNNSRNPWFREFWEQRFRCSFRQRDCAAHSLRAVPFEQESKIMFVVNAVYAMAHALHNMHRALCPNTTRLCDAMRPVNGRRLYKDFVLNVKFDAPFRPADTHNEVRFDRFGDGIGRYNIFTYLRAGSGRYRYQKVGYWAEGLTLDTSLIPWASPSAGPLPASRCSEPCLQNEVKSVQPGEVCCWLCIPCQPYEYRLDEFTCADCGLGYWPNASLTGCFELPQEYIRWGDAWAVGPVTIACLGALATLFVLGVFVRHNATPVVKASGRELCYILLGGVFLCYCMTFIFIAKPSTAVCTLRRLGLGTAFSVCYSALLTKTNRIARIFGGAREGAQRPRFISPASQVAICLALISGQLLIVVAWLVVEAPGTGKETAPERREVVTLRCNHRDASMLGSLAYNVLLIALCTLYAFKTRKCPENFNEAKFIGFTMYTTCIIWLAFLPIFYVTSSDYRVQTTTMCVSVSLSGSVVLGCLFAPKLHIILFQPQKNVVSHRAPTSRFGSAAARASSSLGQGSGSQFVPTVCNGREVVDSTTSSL
Assay type: cell-based
c1cc2c(cc1-c1ccn3c(CC4CC4)nnc3c1)OCO2 showed an EC50 of 970 nM.
With Clc1c(-c2ccc3c(c2)OCO3)ccn2c(CC3CC3)nnc12 the EC50 was 890 nM.
COC(=O)c1ccc(-c2ccn3c(CC4CC4)nnc3c2Cl)c(F)c1 showed an EC50 of 910 nM.
